Data reported in patent publication US4275067A, “Decarboxyclavulanic acid thio ethers, their preparation and use” (Beecham Group Limited, priority 1977, dated 1981).
Converted amounts (≈) assume the structure as drawn. Like-named read-outs stand apart in the source and are kept apart here.

Assays:
[1] = molecular target: T1, β-lactamase (E. coli JT 4) (Escherichia coli, UniProt P62593); test: β-lactamase inhibition; assay type: biochemical; settings: β-lactamase from E. coli JT 4; read-out: I50 (converted)
T1 construct: Source of β-lactamase; endogenous in cells; host or cells: E. coli JT 4
Procedure: (§1) I50 values were determined using the process described in Belgian Pat. No. 827,926.

[2] = molecular target: T2, β-lactamase (Enterobacter cloacae P 99) (Enterobacter cloacae, UniProt P05364); test: β-lactamase inhibition; assay type: biochemical; settings: β-lactamase from Enterobacter cloacae P 99; read-out: I50 (converted)
T2 construct: Source of β-lactamase; endogenous in cells; host or cells: Enterobacter cloacae P 99
Procedure: as §1

[3] = molecular target: β-lactamase (Proteus mirabilis C 889); test: β-lactamase inhibition; assay type: biochemical; settings: β-lactamase from Proteus mirabilis C 889
Procedure: as §1

[4] = molecular target: T3, β-lactamase (Ps. aeruginosa Dalgleish) (Pseudomonas aeruginosa, UniProt P16897); test: β-lactamase inhibition; assay type: biochemical; settings: β-lactamase from Ps. aeruginosa Dalgleish; read-out: I50 (converted)
T3 construct: Source of β-lactamase; endogenous in cells; host or cells: Ps. aeruginosa Dalgleish
Procedure: as §1

[5] = molecular target: β-lactamase (Pseudomonas aeruginosa A); test: β-lactamase inhibition; assay type: biochemical; settings: β-lactamase from Pseudomonas aeruginosa A
Procedure: as §1

[6] = molecular target: T4, β-lactamase (Staph. aureus Russell) (Staphylococcus aureus, UniProt P00807); test: β-lactamase inhibition; assay type: biochemical; settings: β-lactamase from Staph. aureus Russell; read-out: I50 (converted)
T4 construct: Source of β-lactamase; endogenous in cells; host or cells: Staph. aureus Russell
Procedure: as §1

[7] = tested on: Staph. aureus Russell and Klebsiella aerogenes E70; test: Antibacterial synergy when combined with ampicillin (overall statement); assay type: cell-based
[8] = tested on: Candida albicans; test: Anti-fungal activity, microtitre method; assay type: cell-based; settings: glucosepeptone broth
Text: (§2) The anti-fungal activity of the compound of Example 7 was investigated using a microtitre method, with glucosepeptone broth at 1/50 and 1/500 final dilutions of inoculum. The organisms used were Candida albicans and Saccharomyces cerevisiae. The minimum inhibitory concentrations (MIC) are shown below.

[9] = tested on: Saccharomyces cerevisiae; test: Anti-fungal activity, microtitre method; assay type: cell-based; settings: glucosepeptone broth
Text: as §2

[10] = tested on: Staph. aureus Russell; test: Antibacterial synergy with ampicillin; assay type: cell-based; settings: ampicillin without inhibitor

T2 sequence (P05364 21-381): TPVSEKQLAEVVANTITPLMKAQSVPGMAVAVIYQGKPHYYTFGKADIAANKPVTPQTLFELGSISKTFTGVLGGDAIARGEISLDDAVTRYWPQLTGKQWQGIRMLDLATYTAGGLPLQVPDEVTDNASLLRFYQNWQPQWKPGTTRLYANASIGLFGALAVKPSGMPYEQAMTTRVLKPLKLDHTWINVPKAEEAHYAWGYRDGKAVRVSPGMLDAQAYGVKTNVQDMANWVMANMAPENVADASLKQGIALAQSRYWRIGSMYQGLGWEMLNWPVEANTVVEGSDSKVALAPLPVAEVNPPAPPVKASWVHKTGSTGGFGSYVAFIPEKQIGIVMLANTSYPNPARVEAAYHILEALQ
T4 sequence (P00807 25-281): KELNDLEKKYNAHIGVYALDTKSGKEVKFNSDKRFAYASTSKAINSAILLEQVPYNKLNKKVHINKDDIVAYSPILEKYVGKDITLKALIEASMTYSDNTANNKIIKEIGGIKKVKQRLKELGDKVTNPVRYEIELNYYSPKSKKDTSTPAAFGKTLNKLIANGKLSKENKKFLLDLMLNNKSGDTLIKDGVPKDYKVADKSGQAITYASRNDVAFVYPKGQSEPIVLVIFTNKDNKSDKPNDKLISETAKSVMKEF
T1 sequence (P62593 24-286 limits assumed): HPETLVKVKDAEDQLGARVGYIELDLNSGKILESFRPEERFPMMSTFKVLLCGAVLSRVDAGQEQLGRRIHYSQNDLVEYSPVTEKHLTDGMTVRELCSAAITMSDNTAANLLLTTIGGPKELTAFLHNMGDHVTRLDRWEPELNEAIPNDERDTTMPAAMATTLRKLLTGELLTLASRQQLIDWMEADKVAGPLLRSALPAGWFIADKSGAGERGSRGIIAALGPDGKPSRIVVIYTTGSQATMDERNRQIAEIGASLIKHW
T3 sequence (P16897 18-288): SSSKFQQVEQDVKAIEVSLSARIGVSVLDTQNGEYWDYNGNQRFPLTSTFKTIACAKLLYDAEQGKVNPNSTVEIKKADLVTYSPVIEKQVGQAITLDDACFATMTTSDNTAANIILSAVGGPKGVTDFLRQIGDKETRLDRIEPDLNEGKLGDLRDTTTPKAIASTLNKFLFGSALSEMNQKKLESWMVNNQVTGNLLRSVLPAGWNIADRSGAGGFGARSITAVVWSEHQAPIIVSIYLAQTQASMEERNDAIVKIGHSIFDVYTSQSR

Q: Which results are given for O=C1C[C@H]2O/C(=C\CSc3ccccc3)CN12 [Example 1, (Z, 5R)-3-(2-Phenylthioethylidene)-4-oxa-1-azabicyclo [3.2.0]heptan-7-one]?
A: IC50 [1]: 1460 nM; IC50 [2]: 5340 nM; I50 [3]: 4.4 µg/mL; IC50 [4]: 2430 nM; I50 [5]: 2.2 µg/mL; IC50 [6]: 1010 nM; antibacterial synergy [7]: active as antibacterial synergists

Q: Which results are given for COC(=O)CCSC/C=C1/CN2C(=O)C[C@H]2O1 [Example 7, (Z)-(5R)-3-[2-(2-Methoxycarbonylethylthio)ethylidene]-4-oxa-1-azabicyclo[3.2.0]hetpan-7-one]?
A: MIC ([8]; Candida albicans, final dilution of inoculum 1/50, read-out: minimum inhibitory concentration (MIC)): 12.5 µg/mL (≈ 48.6 µM); minimum inhibitory concentration (MIC) ([8]; final dilution of inoculum 1/500): 12.5 µg/mL (≈ 48.6 µM); MIC ([9]; final dilution of inoculum 1/50, read-out: minimum inhibitory concentration (MIC)): > 100 µg/mL; MIC ([9]; final dilution of inoculum 1/500, read-out: minimum inhibitory concentration (MIC)): 100 µg/mL (≈ 389 µM)

Q: CC1(C)S[C@@H]2[C@H](NC(=O)[C@H](N)c3ccccc3)C(=O)N2[C@H]1C(=O)O [ampicillin] was tested. Which MIC for ampicillin [10] did it give?
A: Its MIC for ampicillin is 250 µg/mL.
